According to the NIST ThermoML archive (doi:10.1021/je049691v):

Assay: xn = mol fraction of the nth substance listed
Details: Liquid

CO [methanol] + O
Details | mass density [kg/m3]
283.15 K, x2 = 0.08 | 813.74
283.15 K, x2 = 0.1581 | 827.14
283.15 K, x2 = 0.2401 | 842.01
283.15 K, x2 = 0.3206 | 857.15
283.15 K, x2 = 0.3987 | 872.39
283.15 K, x2 = 0.4799 | 888.59
283.15 K, x2 = 0.56 | 905.16
283.15 K, x2 = 0.6407 | 922.05
283.15 K, x2 = 0.7201 | 938.63
283.15 K, x2 = 0.8 | 954.82
283.15 K, x2 = 0.8801 | 970.45
283.15 K, x2 = 0.9603 | 988.05
288.15 K, x2 = 0.08 | 809.22
288.15 K, x2 = 0.1581 | 822.75
288.15 K, x2 = 0.2401 | 837.75
288.15 K, x2 = 0.3206 | 853.02
288.15 K, x2 = 0.3987 | 868.39
288.15 K, x2 = 0.4799 | 884.77
288.15 K, x2 = 0.56 | 901.56
288.15 K, x2 = 0.6407 | 918.74
288.15 K, x2 = 0.7201 | 935.71
288.15 K, x2 = 0.8 | 952.47
288.15 K, x2 = 0.8801 | 968.91
288.15 K, x2 = 0.9603 | 987.31
293.15 K, x2 = 0.08 | 804.67
293.15 K, x2 = 0.1581 | 818.33
293.15 K, x2 = 0.2401 | 833.45
293.15 K, x2 = 0.3206 | 848.84
293.15 K, x2 = 0.3987 | 864.35
293.15 K, x2 = 0.4799 | 880.88
293.15 K, x2 = 0.56 | 897.88
293.15 K, x2 = 0.6407 | 915.33
293.15 K, x2 = 0.7201 | 932.67
293.15 K, x2 = 0.8 | 949.98
293.15 K, x2 = 0.8801 | 967.17
293.15 K, x2 = 0.9603 | 986.29
298.15 K, x2 = 0.08 | 800.1
298.15 K, x2 = 0.1581 | 813.88
298.15 K, x2 = 0.2401 | 829.11
298.15 K, x2 = 0.3206 | 844.62
298.15 K, x2 = 0.3987 | 860.25
298.15 K, x2 = 0.4799 | 876.94
298.15 K, x2 = 0.56 | 894.14
298.15 K, x2 = 0.6407 | 911.85
298.15 K, x2 = 0.7201 | 929.54
298.15 K, x2 = 0.8 | 947.37
298.15 K, x2 = 0.8801 | 965.23
298.15 K, x2 = 0.9603 | 985.01
303.15 K, x2 = 0.08 | 795.52
303.15 K, x2 = 0.1581 | 809.4
303.15 K, x2 = 0.2401 | 824.74
303.15 K, x2 = 0.3206 | 840.35
303.15 K, x2 = 0.3987 | 856.1
303.15 K, x2 = 0.4799 | 872.93
303.15 K, x2 = 0.56 | 890.32
303.15 K, x2 = 0.6407 | 908.28
303.15 K, x2 = 0.7201 | 926.31
303.15 K, x2 = 0.8 | 944.61
303.15 K, x2 = 0.8801 | 963.12
303.15 K, x2 = 0.9603 | 983.49
308.15 K, x2 = 0.08 | 790.9
308.15 K, x2 = 0.1581 | 804.88
308.15 K, x2 = 0.2401 | 820.31
308.15 K, x2 = 0.3206 | 836.03
308.15 K, x2 = 0.3987 | 851.89
308.15 K, x2 = 0.4799 | 868.86
308.15 K, x2 = 0.56 | 886.42
308.15 K, x2 = 0.6407 | 904.62
308.15 K, x2 = 0.7201 | 922.97
308.15 K, x2 = 0.8 | 941.73
308.15 K, x2 = 0.8801 | 960.83
308.15 K, x2 = 0.9603 | 981.76
313.15 K, x2 = 0.08 | 786.24
313.15 K, x2 = 0.1581 | 800.3
313.15 K, x2 = 0.2401 | 815.84
313.15 K, x2 = 0.3206 | 831.64
313.15 K, x2 = 0.3987 | 847.61
313.15 K, x2 = 0.4799 | 864.71
313.15 K, x2 = 0.56 | 882.44
313.15 K, x2 = 0.6407 | 900.87
313.15 K, x2 = 0.7201 | 919.53
313.15 K, x2 = 0.8 | 938.72
313.15 K, x2 = 0.8801 | 958.38
313.15 K, x2 = 0.9603 | 979.82
318.15 K, x2 = 0.08 | 781.54
318.15 K, x2 = 0.1581 | 795.69
318.15 K, x2 = 0.2401 | 811.3
318.15 K, x2 = 0.3206 | 827.2
318.15 K, x2 = 0.3987 | 843.26
318.15 K, x2 = 0.4799 | 860.49
318.15 K, x2 = 0.56 | 878.38
318.15 K, x2 = 0.6407 | 897.03
318.15 K, x2 = 0.7201 | 915.98
318.15 K, x2 = 0.8 | 935.58
318.15 K, x2 = 0.8801 | 955.76
318.15 K, x2 = 0.9603 | 977.69
323.15 K, x2 = 0.08 | 776.8
323.15 K, x2 = 0.1581 | 791.04
323.15 K, x2 = 0.2401 | 806.71
323.15 K, x2 = 0.3206 | 822.69
323.15 K, x2 = 0.3987 | 838.85
323.15 K, x2 = 0.4799 | 856.2
323.15 K, x2 = 0.56 | 874.24
323.15 K, x2 = 0.6407 | 893.1
323.15 K, x2 = 0.7201 | 912.32
323.15 K, x2 = 0.8 | 932.31
323.15 K, x2 = 0.8801 | 952.99
323.15 K, x2 = 0.9603 | 975.39
328.15 K, x2 = 0.08 | 772.01
328.15 K, x2 = 0.1581 | 786.32
328.15 K, x2 = 0.2401 | 802.07
328.15 K, x2 = 0.3206 | 818.11
328.15 K, x2 = 0.3987 | 834.36
328.15 K, x2 = 0.4799 | 851.82
328.15 K, x2 = 0.56 | 870.01
328.15 K, x2 = 0.6407 | 889.07
328.15 K, x2 = 0.7201 | 908.56
328.15 K, x2 = 0.8 | 928.92
328.15 K, x2 = 0.8801 | 950.06
328.15 K, x2 = 0.9603 | 972.92
333.15 K, x2 = 0.08 | 767.16
333.15 K, x2 = 0.1581 | 781.54
333.15 K, x2 = 0.2401 | 797.35
333.15 K, x2 = 0.3206 | 813.44
333.15 K, x2 = 0.3987 | 829.79
333.15 K, x2 = 0.4799 | 847.36
333.15 K, x2 = 0.56 | 865.69
333.15 K, x2 = 0.6407 | 884.94
333.15 K, x2 = 0.7201 | 904.69
333.15 K, x2 = 0.8 | 925.41
333.15 K, x2 = 0.8801 | 947
333.15 K, x2 = 0.9603 | 970.28
338.15 K, x2 = 0.08 | 762.24
338.15 K, x2 = 0.1581 | 776.67
338.15 K, x2 = 0.2401 | 792.56
338.15 K, x2 = 0.3206 | 808.71
338.15 K, x2 = 0.3987 | 825.13
338.15 K, x2 = 0.4799 | 842.81
338.15 K, x2 = 0.56 | 861.28
338.15 K, x2 = 0.6407 | 880.72
338.15 K, x2 = 0.7201 | 900.71
338.15 K, x2 = 0.8 | 921.77
338.15 K, x2 = 0.8801 | 943.79
338.15 K, x2 = 0.9603 | 967.5
343.15 K, x2 = 0.08 | 757.24
343.15 K, x2 = 0.1581 | 771.74
343.15 K, x2 = 0.2401 | 787.68
343.15 K, x2 = 0.3206 | 803.91
343.15 K, x2 = 0.3987 | 820.39
343.15 K, x2 = 0.4799 | 838.17
343.15 K, x2 = 0.56 | 856.77
343.15 K, x2 = 0.6407 | 876.4
343.15 K, x2 = 0.7201 | 896.64
343.15 K, x2 = 0.8 | 918.02
343.15 K, x2 = 0.8801 | 940.45
343.15 K, x2 = 0.9603 | 964.57
348.15 K, x2 = 0.08 | 752.17
348.15 K, x2 = 0.1581 | 766.72
348.15 K, x2 = 0.2401 | 782.71
348.15 K, x2 = 0.3206 | 799
348.15 K, x2 = 0.3987 | 815.56
348.15 K, x2 = 0.4799 | 833.44
348.15 K, x2 = 0.56 | 852.18
348.15 K, x2 = 0.6407 | 871.97
348.15 K, x2 = 0.7201 | 892.45
348.15 K, x2 = 0.8 | 914.14
348.15 K, x2 = 0.8801 | 936.97
348.15 K, x2 = 0.9603 | 961.5
353.15 K, x2 = 0.08 | 747.01
353.15 K, x2 = 0.1581 | 761.6
353.15 K, x2 = 0.2401 | 777.65
353.15 K, x2 = 0.3206 | 794
353.15 K, x2 = 0.3987 | 810.62
353.15 K, x2 = 0.4799 | 828.62
353.15 K, x2 = 0.56 | 847.48
353.15 K, x2 = 0.6407 | 867.48
353.15 K, x2 = 0.7201 | 888.15
353.15 K, x2 = 0.8 | 910.15
353.15 K, x2 = 0.8801 | 933.37
353.15 K, x2 = 0.9603 | 958.3
